Active and inactive are the calls of the source. The calls are words filed in the database; no cut-off is given here.
Assays:
ClpP1P2 [1] = target: ClpP1P2 (Mycobacterium tuberculosis (strain ATCC 25618 / H37Rv), UniProt P9WPC3+P9WPC5, E149R); assay: Inhibition of Mtb ClpP1 E149R mutant expressed in Escherichia coli BL21(DE3)
[2] = system: ClpP1P2 (Mycobacterium tuberculosis (strain ATCC 25618 / H37Rv)), P9WPC5+P9WPC3 [M75L]; assay: Inhibition of Mtb ClpP1 M75L mutant expressed in Escherichia coli BL21(DE3)
ClpP1P2 [3] = target: ClpP1P2 (Mycobacterium tuberculosis (strain ATCC 25618 / H37Rv), UniProt P9WPC3+P9WPC5, S72T); assay: Inhibition of Mtb ClpP1 S72T mutant expressed in Escherichia coli BL21(DE3)
[4] = system: ClpP1P2 (Mycobacterium tuberculosis (strain ATCC 25618 / H37Rv)), P9WPC5+P9WPC3 [M95Q]; assay: Inhibition of Mtb ClpP1 M95Q mutant expressed in Escherichia coli BL21(DE3)
ClpP1P2 [5] = target: ClpP1P2 (Mycobacterium tuberculosis (strain ATCC 25618 / H37Rv), UniProt P9WPC3+P9WPC5, E149K); assay: Inhibition of Mtb ClpP1 E149K mutant expressed in Escherichia coli BL21(DE3)
ClpP1P2 [6] = target: ClpP1P2 (Mycobacterium tuberculosis (strain ATCC 25618 / H37Rv), UniProt P9WPC3+P9WPC5, R119S); assay: Inhibition of Mtb ClpP1 R119S mutant expressed in Escherichia coli BL21(DE3)
[7] = system: ClpP1P2 (Mycobacterium tuberculosis (strain ATCC 25618 / H37Rv)), P9WPC5+P9WPC3 [M95A]; assay: Inhibition of Mtb ClpP1 M95A mutant expressed in Escherichia coli BL21(DE3)
[8] = system: ClpP1P2 (Mycobacterium tuberculosis (strain ATCC 25618 / H37Rv)), P9WPC5+P9WPC3 [M75F]; assay: Inhibition of Mtb ClpP1 M75F mutant expressed in Escherichia coli BL21(DE3)
ClpP1P2 [9] = target: ClpP1P2 (Mycobacterium tuberculosis (strain ATCC 25618 / H37Rv), UniProt P9WPC3+P9WPC5, Q142R); assay: Inhibition of Mtb ClpP1 Q142R mutant expressed in Escherichia coli BL21(DE3)
[10] = system: ClpP1P2 (Mycobacterium tuberculosis (strain ATCC 25618 / H37Rv)), P9WPC5+P9WPC3 [R119Q]; assay: Inhibition of Mtb ClpP1 R119Q mutant expressed in Escherichia coli BL21(DE3)
[11] = system: ClpP1P2 (Mycobacterium tuberculosis (strain ATCC 25618 / H37Rv)), P9WPC5+P9WPC3 [W174F]; assay: Inhibition of Mtb ClpP1 W174F mutant expressed in Escherichia coli BL21(DE3)
[12] = Selectivity index, ratio of IC50 for full-length Staphylococcus aureus ClpP complex/Escherichia coli ClpX delta N mutant (62 to 425 residues) expressed in Escherichia coli BL21(DE3) using FITC-casein as substrate to IC50 for N-terminal His6-SUMO-tagged Mtb ClpP1 (7 to 200 residues)/ClpP2 (13 to 214 residues) complex expressed in Escherichia coli BL21(DE3)
ClpP1P2 [13] = target: ClpP1P2 (Mycobacterium tuberculosis (strain ATCC 25618 / H37Rv), UniProt P9WPC3+P9WPC5, W174A); assay: Inhibition of Mtb ClpP1 W174A mutant expressed in Escherichia coli BL21(DE3)
[14] = system: ClpP1P2 (Mycobacterium tuberculosis (strain ATCC 25618 / H37Rv)), P9WPC5+P9WPC3 [I146M]; assay: Inhibition of Mtb ClpP1 I146M mutant expressed in Escherichia coli BL21(DE3)
ClpP1P2 [15] = target: ClpP1P2 (Mycobacterium tuberculosis (strain ATCC 25618 / H37Rv), UniProt P9WPC3+P9WPC5, H117N); assay: Inhibition of Mtb ClpP1 H117N mutant expressed in Escherichia coli BL21(DE3)
ClpP1P2 [16] = target: ClpP1P2 (Mycobacterium tuberculosis (strain ATCC 25618 / H37Rv), UniProt P9WPC3+P9WPC5, I146T); assay: Inhibition of Mtb ClpP1 I146T mutant expressed in Escherichia coli BL21(DE3)
[17] = system: ClpP1P2 (Mycobacterium tuberculosis (strain ATCC 25618 / H37Rv)), P9WPC5+P9WPC3 [M95S]; assay: Inhibition of Mtb ClpP1 M95S mutant expressed in Escherichia coli BL21(DE3)
ClpP1P2 [18] = target: ClpP1P2 (Mycobacterium tuberculosis (strain ATCC 25618 / H37Rv), UniProt P9WPC3+P9WPC5, I146L); assay: Inhibition of Mtb ClpP1 I146L mutant expressed in Escherichia coli BL21(DE3)
ClpP1P2 [19] = target: ClpP1P2 (Mycobacterium tuberculosis (strain ATCC 25618 / H37Rv), UniProt P9WPC3+P9WPC5, Q142H); assay: Inhibition of Mtb ClpP1 Q142H mutant expressed in Escherichia coli BL21(DE3)
ClpP1P2 [20] = target: ClpP1P2 (Mycobacterium tuberculosis (strain ATCC 25618 / H37Rv), UniProt P9WPC3+P9WPC5, W174I); assay: Inhibition of Mtb ClpP1 W174I mutant expressed in Escherichia coli BL21(DE3)
[21] = system: ClpP1P2 (Mycobacterium tuberculosis (strain ATCC 25618 / H37Rv)), P9WPC5+P9WPC3 [E149L]; assay: Inhibition of Mtb ClpP1 E149L mutant expressed in Escherichia coli BL21(DE3)
ClpP1P2 [22] = target: ClpP1P2 (Mycobacterium tuberculosis (strain ATCC 25618 / H37Rv), UniProt P9WPC3+P9WPC5, E149T); assay: Inhibition of Mtb ClpP1 E149T mutant expressed in Escherichia coli BL21(DE3)
ClpP1P2 [23] = target: ClpP1P2 (Mycobacterium tuberculosis (strain ATCC 25618 / H37Rv), UniProt P9WPC3+P9WPC5, I71F); assay: Inhibition of Mtb ClpP1 I71F mutant expressed in Escherichia coli BL21(DE3)
[24] = system: ClpP1P2 (Mycobacterium tuberculosis (strain ATCC 25618 / H37Rv)), P9WPC5+P9WPC3 [I71V]; assay: Inhibition of Mtb ClpP1 I71V mutant expressed in Escherichia coli BL21(DE3)
ClpP1P2 [25] = target: ClpP1P2 (Mycobacterium tuberculosis (strain ATCC 25618 / H37Rv), UniProt P9WPC3+P9WPC5, H117A); assay: Inhibition of Mtb ClpP1 H117A mutant expressed in Escherichia coli BL21(DE3)
ClpP1P2 [26] = target: ClpP1P2 (Mycobacterium tuberculosis (strain ATCC 25618 / H37Rv), UniProt P9WPC3+P9WPC5, M95W); assay: Inhibition of Mtb ClpP1 M95W mutant expressed in Escherichia coli BL21(DE3)
[27] = system: ClpP1P2 (Mycobacterium tuberculosis (strain ATCC 25618 / H37Rv)), P9WPC5+P9WPC3 [M75A]; assay: Inhibition of Mtb ClpP1 M75A mutant expressed in Escherichia coli BL21(DE3)
ClpP1P2 [28] = target: ClpP1P2 (Mycobacterium tuberculosis (strain ATCC 25618 / H37Rv), UniProt P9WPC3+P9WPC5, E149Q); assay: Inhibition of Mtb ClpP1 E149Q mutant expressed in Escherichia coli BL21(DE3)
ClpP1P2 [29] = target: ClpP1P2 (Mycobacterium tuberculosis (strain ATCC 25618 / H37Rv), UniProt P9WPC3+P9WPC5, M95L); assay: Inhibition of Mtb ClpP1 M95L mutant expressed in Escherichia coli BL21(DE3)
[30] = system: ClpP1P2 (Mycobacterium tuberculosis (strain ATCC 25618 / H37Rv)), P9WPC5+P9WPC3 [R119E]; assay: Inhibition of Mtb ClpP1 R119E mutant expressed in Escherichia coli BL21(DE3)
[31] = system: ClpP1P2 (Mycobacterium tuberculosis (strain ATCC 25618 / H37Rv)), P9WPC5+P9WPC3 [I146V]; assay: Inhibition of Mtb ClpP1 I146V mutant expressed in Escherichia coli BL21(DE3)

COc1cc2c(Oc3ccc4[nH]c(C)cc4c3F)ncnc2cc1OCCCN1CCCC1 [CEDIRANIB]
IC50 (ClpP1P2 [1]): 41.8 µM | inhibition [2]: inactive | IC50 (ClpP1P2 [3]): > 54.5 µM | inhibition [4]: inactive | IC50 (ClpP1P2 [5]): > 100 µM | IC50 (ClpP1P2 [6]): 42.2 µM | inhibition [7]: Active | inhibition [8]: inactive | IC50 (ClpP1P2 [9]): 9.5 µM | inhibition [10]: inactive | inhibition [11]: inactive | Ratio IC50 [12]: 9.6 | IC50 (ClpP1P2 [13]): 20.2 µM | inhibition [14]: inactive | IC50 (ClpP1P2 [15]): > 50 µM | IC50 (ClpP1P2 [16]): 5.1 µM | inhibition [17]: inactive | IC50 (ClpP1P2 [18]): 9.7 µM | IC50 (ClpP1P2 [19]): 14.4 µM | IC50 (ClpP1P2 [20]): 12.8 µM | inhibition [21]: inactive | IC50 (ClpP1P2 [22]): 7.6 µM | IC50 (ClpP1P2 [23]): 3.4 µM | inhibition [24]: inactive | IC50 (ClpP1P2 [25]): 4.4 µM | IC50 (ClpP1P2 [26]): 7.5 µM | inhibition [27]: Active | IC50 (ClpP1P2 [28]): 6.3 µM | IC50 (ClpP1P2 [29]): 23.7 µM | inhibition [30]: inactive | inhibition [31]: inactive

Source: ChEMBL document CHEMBL5375995, “Discovery and Mechanistic Study of Novel Mycobacterium tuberculosis ClpP1P2 Inhibitors” (J Med Chem, 2023)
